Structures can show the parent of a compound that is named as a salt.
The compounds below were run against T1, PDE4B (human recombinant) (Homo sapiens, UniProt Q07343) (assay: Inhibition of PDE4B activity: SPA and/or Fluorescence Polarisation (FP) assay). Settings: one reading (n=1) or average of 2 or more readings, read-out: PDE4B pIC50 (±about 0.5) (converted).
T1 construct: made in house
Assay type: biochemical
Procedure, shortened: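 Human recombinant PDE4B activity measured by SPA with [3H]cAMP at about 10 nM, 1 h at ambient temperature, enzyme set for ≤20% substrate hydrolysis, or by IMAP FP with Fl-cAMP at about 40 nM, 40 min at ambient temperature under linear conditions. Inhibition curves fitted; values reported as pIC50.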

T1 sequence (Q07343 1-564 isoform Q07343-2): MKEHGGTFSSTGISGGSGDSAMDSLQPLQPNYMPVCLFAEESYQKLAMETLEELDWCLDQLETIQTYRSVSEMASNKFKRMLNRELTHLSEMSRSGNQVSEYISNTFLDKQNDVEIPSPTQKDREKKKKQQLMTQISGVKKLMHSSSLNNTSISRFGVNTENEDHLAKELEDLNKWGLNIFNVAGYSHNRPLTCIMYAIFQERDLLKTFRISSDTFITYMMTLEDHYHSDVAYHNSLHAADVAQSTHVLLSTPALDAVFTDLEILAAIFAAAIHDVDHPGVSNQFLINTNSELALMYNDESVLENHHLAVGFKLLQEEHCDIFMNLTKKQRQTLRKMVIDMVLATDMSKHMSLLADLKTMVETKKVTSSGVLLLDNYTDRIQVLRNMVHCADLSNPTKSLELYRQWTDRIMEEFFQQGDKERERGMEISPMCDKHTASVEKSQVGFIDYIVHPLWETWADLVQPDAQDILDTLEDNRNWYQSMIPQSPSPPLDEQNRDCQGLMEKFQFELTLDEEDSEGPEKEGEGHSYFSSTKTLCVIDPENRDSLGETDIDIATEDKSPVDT

IC50 [nM] | Compound
0.01 to 0.1 | CCc1nc2c(cnn2CC)c(NC2CCOCC2)c1CN1Cc2ccc(C(F)(F)F)cc2C1=O [Example 317, 2-{[1,6-diethyl-4-(tetrahydro-2H-pyran-4-ylamino)-1H-pyrazolo[3,4-b]pyridin-5-yl]methyl}-6-(trifluoromethyl)-2,3-dihydro-1H-isoindol-1-one]
0.126 to 1 | CCn1ncc2c(NC3CCOCC3)c(CNC(=O)c3coc(C)n3)c(C)nc21 [Example 318, N-{[1-ethyl-6-methyl-4-(tetrahydro-2H-pyran-4-ylamino)-1H-pyrazolo[3,4-b]pyridin-5-yl]methyl}-2-methyl-1,3-oxazole-4-carboxamide]
0.126 to 1 | CCn1ncc2c(NC3CCOCC3)c(CNC(=O)c3csc(C(F)(F)F)n3)c(C)nc21 [Example 319, N-{[1-ethyl-6-methyl-4-(tetrahydro-2H-pyran-4-ylamino)-1H-pyrazolo[3,4-b]pyridin-5-yl]methyl}-2-(trifluoromethyl)-1,3-thiazole-4-carboxamide]
0.126 to 1 | CCn1ncc2c(NC3CCOCC3)c(CNC(=O)c3cnc(C)s3)c(C)nc21 [Example 322, N-{[1-ethyl-6-methyl-4-(tetrahydro-2H-pyran-4-ylamino)-1H-pyrazolo[3,4-b]pyridin-5-yl]methyl}-2-methyl-1,3-thiazole-5-carboxamide]
0.01 to 0.1 | CCc1nc2c(cnn2CC)c(NC2CCOCC2)c1CNC(=O)c1ccc(C(F)(F)F)o1 [Example 323, N-{[1,6-diethyl-4-(tetrahydro-2H-pyran-4-ylamino)-1H-pyrazolo[3,4-b]pyridin-5-yl]methyl}-5-(trifluoromethyl)-2-furancarboxamide]
0.126 to 1 | CCn1ncc2c(NC3CCOCC3)c(CNC(=O)c3ccc(C(F)(F)F)o3)c(C)nc21 [Example 324, N-{[1-ethyl-6-methyl-4-(tetrahydro-2H-pyran-4-ylamino)-1H-pyrazolo[3,4-b]pyridin-5-yl]methyl}-5-(trifluoromethyl)-2-furancarboxamide]
0.126 to 1 | CCc1nc2c(cnn2CC)c(NC2CCOCC2)c1CNC(=O)c1ccc(C#N)nc1 [Example 325, 6-cyano-N-{[1,6-diethyl-4-(tetrahydro-2H-pyran-4-ylamino)-1H-pyrazolo[3,4-b]pyridin-5-yl]methyl}-3-pyridinecarboxamide]
0.126 to 1 | CCc1nc2c(cnn2CC)c(NC2CCOCC2)c1CNC(=O)c1ccc(C(F)(F)F)nc1 [Example 326, N-{[1,6-diethyl-4-(tetrahydro-2H-pyran-4-ylamino)-1H-pyrazolo[3,4-b]pyridin-5-yl]methyl}-6-(trifluoromethyl)-3-pyridinecarboxamide]
0.126 to 1 | CCc1nc2c(cnn2CC)c(NC2CCOCC2)c1CNC(=O)c1cnc(C)nc1 [Example 331, N-{[1,6-diethyl-4-(tetrahydro-2H-pyran-4-ylamino)-1H-pyrazolo[3,4-b]pyridin-5-yl]methyl}-2-methyl-5-pyrimidinecarboxamide]
0.126 to 1 | CCc1nc2c(cnn2CC)c(NC2CCOCC2)c1CNC(=O)c1ccc(C)nc1 [Example 334, N-{[1,6-diethyl-4-(tetrahydro-2H-pyran-4-ylamino)-1H-pyrazolo[3,4-b]pyridin-5-yl]methyl}-6-methyl-3-pyridinecarboxamide]
0.126 to 1 | CCc1nc2c(cnn2CC)c(NC2CCOCC2)c1CNC(=O)c1oc(C)nc1C [Example 335, N-{[1,6-diethyl-4-(tetrahydro-2H-pyran-4-ylamino)-1H-pyrazolo[3,4-b]pyridin-5-yl]methyl}-2,4-dimethyl-1,3-oxazole-5-carboxamide formate]
0.126 to 1 | CCn1ncc2c(NC3CCOCC3)c(CNC(=O)c3cnc(C(C)(C)C)nc3)c(C)nc21 [Example 336, 2-(1,1-dimethylethyl)-N-{[1-ethyl-6-methyl-4-(tetrahydro-2H-pyran-4-ylamino)-1H-pyrazolo[3,4-b]pyridin-5-yl]methyl}-5-pyrimidinecarboxamide]
